Columns and labels:
Format in all cases: in vivo
[1] = test system: Diabrotica balteata (Corn root worm); assay: Diabrotica balteata (Corn root worm), maize sprouts sprayed, L2 larvae mortality; details: 96 h, application rate of 200 ppm, L2 larvae on maize sprouts, assessed 4 days after infestation, read-out: control (mortality)
Procedure: Diabrotica balteata (Corn root worm):
Maize sprouts placed onto an agar layer in 24-well microtiter plates were treated with aqueous test solutions prepared from 10,000 ppm DMSO stock solutions by spraying. After drying, the plates were infested with L2 larvae (6 to 10 per well). The samples were assessed for mortality 4 days after infestation.

[2] = test system: Thrips tabaci (Onion Thrips); assay: Thrips tabaci (Onion Thrips): Feeding/Contact activity; details: foliar, 144 h, application rate of 200 ppm, thrips population of mixed ages on sunflower leaf discs, assessed 6 days after infestation, read-out: control (mortality)
Procedure: Thrips tabaci (Onion Thrips): Feeding/Contact activity
(§1) Sunflower leaf discs were placed on agar in 24-well microtiter plates and sprayed with aqueous test solutions prepared from 10,000 ppm DMSO stock solutions. After drying the leaf discs were infested with a thrips population of mixed ages. The samples were assessed for mortality 6 days after infestation.

[3] = test system: Myzus persicae (Green peach aphid); assay: Myzus persicae (Green peach aphid): Feeding/Contact activity; details: foliar, 144 h, application rate of 200 ppm, aphid population of mixed ages on sunflower leaf discs, assessed 6 days after infestation, read-out: control (mortality)
Procedure: Myzus persicae (Green peach aphid): Feeding/Contact activity Sunflower leaf discs were placed onto agar in a 24-well microtiter plate and sprayed with aqueous test solutions prepared from 10,000 ppm DMSO stock solutions. After drying, the leaf discs were infested with an aphid population of mixed ages. The samples were assessed for mortality 6 days after infestation.

[4] = test system: Spodoptera littoralis (Egyptian cotton leaf worm); assay: Spodoptera littoralis (Egyptian cotton leaf worm): Feeding/contact activity; details: foliar, 72 h, application rate of 200 ppm, L1 larvae on cotton leaf discs, assessed 3 days after infestation, read-out: control (mortality)
Procedure: Spodoptera littoralis (Egyptian cotton leaf worm): Feeding/contact activity Cotton leaf discs were placed onto agar in 24-well microtiter plates and sprayed with aqueous test solutions prepared from 10,000 ppm DMSO stock solutions. After drying the leaf discs were infested with five L1 larvae. The samples were assessed for mortality 3 days after infestation.

[5] = test system: Plutella xylostella (Diamond back moth); assay: Plutella xylostella (Diamond back moth): Feeding/contact activity; details: 120 h, application rate of 200 ppm, L2 larvae on artificial diet, assessed 5 days after infestation, read-out: control (mortality)
Procedure: Plutella xylostella (Diamond back moth): Feeding/contact activity
24-well microtiter plates with artificial diet were treated with aqueous test solutions prepared from 10,000 ppm DMSO stock solutions by pipetting. After drying, the plates were infested with L2 larvae (10 to 15 per well). The samples were assessed for mortality 5 days after infestation.

[6] = test system: Tetranychus urticae (Two-spotted spider mite); assay: Tetranychus urticae (Two-spotted spider mite): Feeding/contact activity; details: foliar, 192 h, application rate of 200 ppm, mite population of mixed ages (mobile stages) on bean leaf discs, assessed 8 days after infestation, read-out: control (mortality)
Procedure: Tetranychus urticae (Two-spotted spider mite): Feeding/contact activity
as §1, with “Bean” for “Sunflower”, “discs” for “discs were placed”, “were” for “and”, “mite” for “thrips”, “on mixed population (mobile stages) 8” for “6”

[7] = test system: Euschistus heros (Neotropical Brown Stink Bug); assay: Euschistus heros (Neotropical Brown Stink Bug): Feeding/contact activity; details: 120 h, application rate of 200 ppm, N2 nymphs on soybean leaves, assessed 5 days after infestation, read-out: control (mortality)
Procedure: Euschistus heros (Neotropical Brown Stink Bug): Feeding/contact activity Soybean leaves on agar in 24-well microtiter plates were sprayed with aqueous test solutions prepared from 10,000 ppm DMSO stock solutions. After drying the leaves were infested with N2 nymphs. The samples were assessed for mortality 5 days after infestation.

Measured: mortality at 200 ppm

Cn1c(C(F)(C(F)(F)F)C(F)(F)F)cc(Br)c1-n1cc(-c2ccc(Cl)c(C(=O)NC3(C#N)CC3)c2)cn1 [Compound 2, 5-[1-[3-bromo-1-methyl-5-[1,2,2,2-tetrafluoro-1-(trifluoromethyl)ethyl]pyrrol-2-yl]pyrazol-4-yl]-2-chloro-N-(1-cyanocyclopropyl)benzamide]
≥ 80%: all assays above

Cn1c(C(F)(C(F)(F)F)C(F)(F)F)cc(Br)c1-c1cc(-c2ccc(Cl)c(C(=O)NC3(C#N)CC3)c2)on1 [Compound 6, 5-[3-[3-bromo-1-methyl-5-[1,2,2,2-tetrafluoro-1-(trifluoromethyl)ethyl]pyrrol-2-yl]isoxazol-5-yl]-2-chloro-N-(1-cyanocyclopropyl)benzamide]
not listed: [2]
≥ 80%: all other assays above

Cn1c(C(F)(C(F)(F)F)C(F)(F)F)cc(C(F)(F)F)c1-n1cc(-c2ccc(Cl)c(C(=O)NC3(C#N)CC3)c2)cn1 [Compound 8, 2-chloro-N-(1-cyanocyclopropyl)-5-[1-[1-methyl-5-[1,2,2,2-tetrafluoro-1-(trifluoromethyl)ethyl]-3-(trifluoromethyl)pyrrol-2-yl]pyrazol-4-yl]benzamide]
not listed: [3] | [6]
≥ 80%: all other assays above

Cn1c(C(F)(C(F)(F)F)C(F)(F)F)cc(Cl)c1-n1cc(-c2ccc(Cl)c(C(=O)NC3(C#N)CC3)c2)cn1 [Compound 9, 2-chloro-5-[1-[3-chloro-1-methyl-5-[1,2,2,2-tetrafluoro-1-(trifluoromethyl)ethyl]pyrrol-2-yl]pyrazol-4-yl]-N-(1-cyanocyclopropyl)benzamide]
≥ 80%: all assays above

Cn1c(C(F)(C(F)(F)F)C(F)(F)F)cc(C#N)c1-n1cc(-c2ccc(Cl)c(C(=O)NC3(C#N)CC3)c2)cn1 [Compound 10, 2-chloro-N-(1-cyanocyclopropyl)-5-[1-[3-cyano-1-methyl-5-[1,2,2,2-tetrafluoro-1-(trifluoromethyl)ethyl]pyrrol-2-yl]pyrazol-4-yl]benzamide]
≥ 80%: all assays above

Cc1cc(C(F)(C(F)(F)F)C(F)(F)F)n(C)c1-n1cc(-c2ccc(Cl)c(C(=O)NC3(C#N)CC3)c2)cn1 [Compound 11, 2-chloro-N-(1-cyanocyclopropyl)-5-[1-[1,3-dimethyl-5-[1,2,2,2-tetrafluoro-1-(trifluoromethyl)ethyl]pyrrol-2-yl]pyrazol-4-yl]benzamide]
not listed: [3]
≥ 80%: all other assays above

COCn1c(C(F)(C(F)(F)F)C(F)(F)F)cc(Br)c1-n1cc(-c2ccc(Cl)c(C(=O)NC3(C#N)CC3)c2)cn1 [Compound 14, 5-[1-[3-bromo-1-(methoxymethyl)-5-[1,2,2,2-tetrafluoro-1-(trifluoromethyl)ethyl]pyrrol-2-yl]pyrazol-4-yl]-2-chloro-N-(1-cyanocyclopropyl)benzamide]
not listed: [2]
≥ 80%: all other assays above

Cn1c(SC(F)(F)F)c(Br)c(Br)c1-n1cc(-c2ccc(Cl)c(C(=O)NC3(C#N)CC3)c2)cn1 [Compound 16, 2-chloro-N-(1-cyanocyclopropyl)-5-[1-[3,4-dibromo-1-methyl-5-(trifluoromethylsulfanyl)pyrrol-2-yl]pyrazol-4-yl]benzamide]
not listed: [3] | [7]
≥ 80%: all other assays above

Cn1c(C(F)(c2cc(F)cc(F)c2)C(F)(F)F)cc(Br)c1-n1cc(-c2ccc(Cl)c(C(=O)NC3(C#N)CC3)c2)cn1 (centres unmarked) [Compound 17, 5-[1-[3-bromo-5-[1-(3,5-difluorophenyl)-1,2,2,2-tetrafluoro-ethyl]-1-methyl-pyrrol-2-yl]pyrazol-4-yl]-2-chloro-N-(1-cyanocyclopropyl)benzamide]
not listed: [3] | [7]
≥ 80%: all other assays above

CCN(C(=O)c1cc(-c2cnn(-c3c(Br)cc(C(F)(C(F)(F)F)C(F)(F)F)n3C)c2)ccc1Cl)C1CC1 [Compound 22, 5-[1-[3-bromo-1-methyl-5-[1,2,2,2-tetrafluoro-1-(trifluoromethyl)ethyl]pyrrol-2-yl]pyrazol-4-yl]-2-chloro-N-cyclopropyl-N-ethyl-benzamide]
not listed: [2]
≥ 80%: all other assays above

Cn1c(C(F)(C(F)(F)F)C(F)(F)F)cc(C(N)=S)c1-n1cc(-c2ccc(Cl)c(C(=O)NC3(C#N)CC3)c2)cn1 [Compound 23, 5-[1-[3-carbamothioyl-1-methyl-5-[1,2,2,2-tetrafluoro-1-(trifluoromethyl)ethyl]pyrrol-2-yl]pyrazol-4-yl]-2-chloro-N-(1-cyanocyclopropyl)benzamide]
not listed: [2]
≥ 80%: all other assays above

Cn1c(C(F)(c2cc(Cl)cc(Cl)c2)C(F)(F)F)cc(Cl)c1-n1cc(-c2ccc(Cl)c(C(=O)NC3(C#N)CC3)c2)cn1 (centres unmarked) [Compound 30, 2-chloro-5-[1-[3-chloro-5-[1-(3,5-dichlorophenyl)-1,2,2,2-tetrafluoro-ethyl]-1-methyl-pyrrol-2-yl]pyrazol-4-yl]-N-(1-cyanocyclopropyl)benzamide]
not listed: [3] | [6]
≥ 80%: all other assays above

Cn1c(C(F)(F)C(F)(F)F)cc(Cl)c1-n1cc(-c2ccc(Cl)c(C(=O)NC3(C#N)CC3)c2)cn1 [Compound 33]
not listed: [2]
≥ 80%: all other assays above

Cn1c(C(F)(C(F)(F)F)C(F)(F)F)cc(I)c1-n1cc(-c2ccc(Cl)c(C(=O)NC3(C#N)CC3)c2)cn1 [Compound 34, 2-chloro-N-(1-cyanocyclopropyl)-5-[1-[3-iodo-1-methyl-5-[1,2,2,2-tetrafluoro-1-(trifluoromethyl)ethyl]pyrrol-2-yl]pyrazol-4-yl]benzamide]
not listed: [3]
≥ 80%: all other assays above

From US11459318B2, “Pesticidally active pyrrole derivatives” (Syngenta Participations AG, priority 2017, dated 2022)
